In patent US20220089578A1, “COMPOUNDS AS GLP-1R AGONISTS” (Terns Pharmaceuticals, Inc., priority 2020, published 2022) one finds EC50 data, which are given here for 27 compounds.

pEC50: −log10 of the molar value.

What is called pEC50 is −log10 of the EC50, conventionally taken in molar units. The low end stands for a high EC50, the high end for a low EC50.

Chain of human GLP-1R (P43220 24-463): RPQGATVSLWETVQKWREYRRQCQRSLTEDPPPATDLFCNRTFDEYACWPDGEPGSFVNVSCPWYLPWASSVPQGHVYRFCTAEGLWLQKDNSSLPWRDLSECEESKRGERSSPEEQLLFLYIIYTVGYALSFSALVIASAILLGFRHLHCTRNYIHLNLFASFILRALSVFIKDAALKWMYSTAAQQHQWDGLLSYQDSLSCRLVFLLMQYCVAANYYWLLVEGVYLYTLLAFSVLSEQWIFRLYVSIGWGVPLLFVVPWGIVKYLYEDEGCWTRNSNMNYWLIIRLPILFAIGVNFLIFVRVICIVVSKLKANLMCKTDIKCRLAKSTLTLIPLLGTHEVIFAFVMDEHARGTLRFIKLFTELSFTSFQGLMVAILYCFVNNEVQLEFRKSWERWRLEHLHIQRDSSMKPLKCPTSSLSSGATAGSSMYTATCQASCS

The target of one assay is human GLP-1R (Homo sapiens, UniProt P43220). As to the kind of experiment: GLP-1R Cell Assay 1: cAMP Hunter CHO-K1 GLP1R Gs cell line, HitHunter cAMP assay. Type of assay: cell-based. Conditions: Table 2; cAMP Hunter CHO-K1 GLP1R Gs cells; percent activity normalized to Exendin-4. A digest of the protocol:
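CHO-K1 cells overexpressing wild-type human GLP-1R treated with 3-fold serially diluted compounds for 30-60 min at 37 °C. cAMP measured by EFC competitive luminescent immunoassay; activity normalised to Exendin-4, duplicate runs, EC50 by nonlinear regression.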
For `N#Cc1cccc2c1CN(c1cccc(N3CCN(Cc4nc5ccc(C(=O)O)cc5n4C[C@@H]4CCO4)CC3)n1)CC2` [Compound 109, (S)-2-((4-(6-(8-cyano-3,4-dihydroisoquinolin-2(1H)-yl)pyridin-2-yl)piperazin-1-yl)methyl)-1-(oxetan-2-ylmethyl)-1H-benzo[d]imidazole-6-carboxylic acid], the pEC50 was 8.44.

Take `N#Cc1ccc2c(c1)CCN(c1ccn(C3CCN(Cc4nc5ccc(C(=O)O)cc5n4C[C@@H]4CCO4)CC3)n1)C2` [Compound 105, (S)-2-((4-(3-(6-cyano-3,4-dihydroisoquinolin-2(1H)-yl)-1H-pyrazol-1-yl)piperidin-1-yl)methyl)-1-(oxetan-2-ylmethyl)-1H-benzo[d]imidazole-6-carboxylic acid]: the pEC50 is under 6.30.

In turn, `O=C(O)c1ccc2nc(CN3CCN(c4cccc(OCc5ccccn5)n4)CC3)n(C[C@@H]3CCO3)c2c1` [Compound 40, (S)-1-(oxetan-2-ylmethyl)-2-((4-(6-(pyridin-2-ylmethoxy)pyridin-2-yl)piperazin-1-yl)methyl)-1H-benzo[d]imidazole-6-carboxylic acid] had a pEC50 of 8.48.

`O=C(O)c1ccc2nc(CN3CCN(c4cccc(OCc5nc6cccnc6s5)n4)CC3)n(C[C@@H]3CCO3)c2c1` [Compound 122, (S)-1-(oxetan-2-ylmethyl)-2-((4-(6-(thiazolo[5,4-b]pyridin-2-ylmethoxy)pyridin-2-yl)piperazin-1-yl)methyl)-1H-benzo[d]imidazole-6-carboxylic acid]: the pEC50 is 8.65.

Compound `O=C(O)c1ccc2nc(CN3CCN(c4cccc(OC5CCC6(CCC6)CC5)n4)CC3)n(C[C@@H]3CCO3)c2c1` [Compound 49, (S)-1-(oxetan-2-ylmethyl)-2-((4-(6-(spiro[3.5]nonan-7-yloxy)pyridin-2-yl)piperazin-1-yl)methyl)-1H-benzo[d]imidazole-6-carboxylic acid] gave a pEC50 of under 6.30.

As for `CCn1cncc1Cn1c(CN2CC[C@]3(c4cccc(OCc5ccc(C#N)cc5F)n4)C[C@@H]3C2)nc2ccc(C(=O)O)cc21` (single isomer, unassigned) [Compound 121-P2], the pEC50 was 10.41.

On to `O=C(O)c1ccc2nc(CN3CCN(c4cccc(OCc5nc6ccccc6o5)n4)CC3)n(C[C@@H]3CCO3)c2c1` [Compound 67, (S)-2-((4-(6-(benzo[d]oxazol-2-ylmethoxy)pyridin-2-yl)piperazin-1-yl)methyl)-1-(oxetan-2-ylmethyl)-1H-benzo[d]imidazole-6-carboxylic acid], for which the pEC50 was 9.07.

In turn, `N#Cc1ccc2c(c1)CCCN(c1cccc(N3CCN(Cc4nc5ccc(C(=O)O)cc5n4C[C@@H]4CCO4)CC3)n1)C2` [Compound 74, (S)-2-((4-(6-(7-cyano-1,3,4,5-tetrahydro-2H-benzo[c]azepin-2-yl)pyridin-2-yl)piperazin-1-yl)methyl)-1-(oxetan-2-ylmethyl)-1H-benzo[d]imidazole-6-carboxylic acid] showed a pEC50 of 6.85.

Compound `N#Cc1ccc(COc2cccc(N3CCC(Cc4nc5ccc(C(=O)O)cc5n4C[C@@H]4CCO4)CC3)n2)c(F)c1` [Compound 15, (S)-2-((1-(6-((4-cyano-2-fluorobenzyl)oxy)pyridin-2-yl)piperidin-4-yl)methyl)-1-(oxetan-2-ylmethyl)-1H-benzo[d]imidazole-6-carboxylic acid] gave a pEC50 of 9.51.

`N#Cc1ccc(Cn2cnc3ccc(N4CCN(Cc5nc6ccc(C(=O)O)cc6n5C[C@@H]5CCO5)CC4)nc32)c(F)c1` [Compound 100, (S)-2-((4-(3-(4-cyano-2-fluorobenzyl)-3H-imidazo[4,5-b]pyridin-5-yl)piperazin-1-yl)methyl)-1-(oxetan-2-ylmethyl)-1H-benzo[d]imidazole-6-carboxylic acid] showed a pEC50 of 6.61.

Consider `O=C(O)c1ccc2nc(CN3CCN(c4cccc(OCc5nc6c(F)cccc6s5)n4)CC3)n(C[C@@H]3CCO3)c2c1` [Compound 107, (S)-2-((4-(6-((4-fluorobenzo[d]thiazol-2-yl)methoxy)pyridin-2-yl)piperazin-1-yl)methyl)-1-(oxetan-2-ylmethyl)-1H-benzo[d]imidazole-6-carboxylic acid], for which the pEC50 was 8.97.

Regarding `C[C@@H]1COC[C@@H](N2CCC(c3cccc(OCc4ccc(C#N)cc4F)n3)CC2)c2nc3ccc(C(=O)O)cc3n21` [Compound 96, (1R,5S)-5-(4-(6-((4-cyano-2-fluorobenzyl)oxy)pyridin-2-yl)piperidin-1-yl)-1-methyl-1,2,4,5-tetrahydrobenzo[4,5]imidazo[1,2-d][1,4]oxazepine-9-carboxylic acid], the pEC50 is 7.11.

For `CCn1cncc1Cn1c(CN2CCC(c3cccc(OCc4ccc(C#N)cc4F)n3)CC2)nc2ccc(C(=O)O)cc21` [Compound 142, 2-((4-(6-((4-cyano-2-fluorobenzyl)oxy)pyridin-2-yl)piperidin-1-yl)methyl)-1-((1-ethyl-1H-imidazol-5-yl)methyl)-1H-benzo[d]imidazole-6-carboxylic acid], the pEC50 is 11.08.

Turning to `O=C(O)c1ccc2nc(CN3CCN(c4cccc(OC5(c6ccccc6)COC5)n4)CC3)n(C[C@@H]3CCO3)c2c1` [Compound 45, (S)-1-(oxetan-2-ylmethyl)-2-((4-(6-((3-phenyloxetan-3-yl)oxy)pyridin-2-yl)piperazin-1-yl)methyl)-1H-benzo[d]imidazole-6-carboxylic acid], the pEC50 was 7.66.

For the compound `O=C(O)c1ccc2nc(CN3CCN(c4cccc(OCC5CCOCC5)n4)CC3)n(C[C@@H]3CCO3)c2c1` [Compound 33, (S)-1-(oxetan-2-ylmethyl)-2-((4-(6-((tetrahydro-2H-pyran-4-yl)methoxy)pyridin-2-yl)piperazin-1-yl)methyl)-1H-benzo[d]imidazole-6-carboxylic acid], the pEC50 was under 6.30.

For the compound `O=C(O)c1ccc2nc(CN3CC[C@]4(c5cccc(OCc6nc7ccccc7s6)n5)C[C@@H]4C3)n(C[C@@H]3CCO3)c2c1` (single isomer, unassigned) [Compound 104-P2], the negative logarithm of the EC50 (pEC50) was 8.09.

`O=C(O)c1ccc2nc(CN3CCC(n4nc(OCc5ccccc5)c5c4CCCC5)CC3)n(C[C@@H]3CCO3)c2c1` [Compound 23, (S)-2-((4-(3-(benzyloxy)-4,5,6,7-tetrahydro-1H-indazol-1-yl)piperidin-1-yl)methyl)-1-(oxetan-2-ylmethyl)-1H-benzo[d]imidazole-6-carboxylic acid] gave a pEC50 of under 6.30.

In turn, `N#Cc1ccc(COc2cccc(C3CCN([C@H]4CCn5c4nc4ccc(C(=O)O)cc45)CC3)n2)c(F)c1` (single isomer, unassigned) [Compound 6-P2] had a pEC50 of under 6.30.

In turn, `CN(Cc1ccc(C(N)=O)cc1)c1cccc(N2CCN(Cc3nc4ccc(C(=O)O)cc4n3C[C@@H]3CCO3)CC2)n1` [Compound 64, (S)-2-((4-(6-((4-carbamoylbenzyl)(methyl)amino)pyridin-2-yl)piperazin-1-yl)methyl)-1-(oxetan-2-ylmethyl)-1H-benzo[d]imidazole-6-carboxylic acid] showed a pEC50 of under 6.30.

`N#Cc1ccc(COc2nn(C3CCN(Cc4nc5ccc(C(=O)O)cc5n4C[C@@H]4CCO4)CC3)cc2C(F)(F)F)c(F)c1` [Compound 117, (S)-2-((4-(3-((4-cyano-2-fluorobenzyl)oxy)-4-(trifluoromethyl)-1H-pyrazol-1-yl)piperidin-1-yl)methyl)-1-(oxetan-2-ylmethyl)-1H-benzo[d]imidazole-6-carboxylic acid] gave a pEC50 of 8.23.

As for `CCn1cncc1Cn1c(CN2CCC3(c4cccc5c4OC(C)(c4ccc(Cl)cc4F)O5)CC3C2)nc2ccc(C(=O)O)cc21` (stereo not drawn) [Compound 138, 2-((6-(2-(4-chloro-2-fluorophenyl)-2-methylbenzo[d][1,3]dioxol-4-yl)-3-azabicyclo[4.1.0]heptan-3-yl)methyl)-1-((1-ethyl-1H-imidazol-5-yl)methyl)-1H-benzo[d]imidazole-6-carboxylic acid], the pEC50 is 9.97.

For the compound `O=C(O)c1ccc2nc(CN3CCN(c4cccc(OCc5ccc6ncoc6c5)n4)CC3)n(C[C@@H]3CCO3)c2c1` [Compound 75, (S)-2-((4-(6-(benzo[d]oxazol-6-ylmethoxy)pyridin-2-yl)piperazin-1-yl)methyl)-1-(oxetan-2-ylmethyl)-1H-benzo[d]imidazole-6-carboxylic acid], the pEC50 was 8.66.

In turn, `O=C(O)c1ccc2nc(CN3CCN(c4ccc5ncn(Cc6ccccc6)c5n4)CC3)n(C[C@@H]3CCO3)c2c1` [Compound 28, (S)-2-((4-(3-benzyl-3H-imidazo[4,5-b]pyridin-5-yl)piperazin-1-yl)methyl)-1-(oxetan-2-ylmethyl)-1H-benzo[d]imidazole-6-carboxylic acid] gave a pEC50 of under 6.30.

The assay is the same for the next values; noted with them: Table 3; cAMP Hunter CHO-K1 GLP1R Gs cells; percent activity normalized to Exendin-4.
With `O=C(O)c1ccc2nc(CN3CCN(c4ccc5c(n4)N(Cc4ccccc4)C(=O)CC5)CC3)n(C[C@@H]3CCO3)c2c1` [Compound 158, (S)-2-((4-(8-benzyl-7-oxo-5,6,7,8-tetrahydro-1,8-naphthyridin-2-yl)piperazin-1-yl)methyl)-1-(oxetan-2-ylmethyl)-1H-benzo[d]imidazole-6-carboxylic acid], the pEC50 was under 6.30.

Compound `N#Cc1ccc2c(c1)CCC[C@H]2Oc1cccc(C2CCN(Cc3nc4ccc(C(=O)O)cc4n3C[C@@H]3CCO3)CC2)n1` (single isomer, unassigned) [Compound 146-P1] gave a pEC50 of under 6.30.

The compound `CCn1cncc1Cn1c(CN2CCC(c3cccc(OCc4nc5c(F)cc(C#N)cc5s4)n3)CC2)nc2ccc(C(=O)O)cc21` [Compound 164, 2-((4-(6-((6-cyano-4-fluorobenzo[d]thiazol-2-yl)methoxy)pyridin-2-yl)piperidin-1-yl)methyl)-1-((1-ethyl-1H-imidazol-5-yl)methyl)-1H-benzo[d]imidazole-6-carboxylic acid] gave a pEC50 of 10.60.

Take `N#Cc1ccc([C@@H]2CCc3c(cccc3N3CCN(Cc4nc5ccc(C(=O)O)cc5n4C[C@@H]4CCO4)CC3)O2)c(F)c1` (single isomer, unassigned) [Compound 151-P2]: the pEC50 is under 6.30.
